The test system of this experiment is BDF1 mice, P388 leukemia ip, median survival T/C. Put plainly: NCI In Vivo Anticancer Drug Screen. Data for tumor model P388 Leukemia (intraperitoneal) in B6D2F1 (BDF1) mice. The note with it: endpoint: median survival time, higher = longer survival. An outline of the steps:
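In tumour-bearing mice, survival after compound treatment is set against the vehicle group and given as a quotient.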

Where [1] appears, read: dose: 100.0 mg/kg/injection, schedule: Q01DX009 (ip), vehicle: saline with Tween-80.

Values joined by “and” are separate entries in the source; they are usually repeats but may differ in a detail not shown here. Identical values can stand only once. Toxic doses and inconclusive results are not listed.

For the compound `CC(=O)OCC1OC(=O)C(C)N(C)C(=O)CN(C)C(=O)C2C(=O)CC(C)N2C(=O)C(C(C)C)NC(=O)C1NC(=O)c1c2nc3c(C(=O)NC4C(=O)NC(C(C)C)C(=O)N5C(C)CC(OC(C)=O)C5C(=O)N(C)CC(=O)N(C)C(C(C)C)C(=O)OC4C)ccc(C)c3oc-2c(C)c(=O)c1N` (centres undefined), the T/C by setting is: (dose: 0.05 mg/kg/injection, schedule: Q01DX009 (ip), vehicle: saline with Tween-80) 154 % of control; (dose: 0.1 mg/kg/injection, schedule: Q01DX009 (ip), vehicle: saline with Tween-80) 156 % of control; (dose: 0.2 mg/kg/injection, schedule: Q01DX009 (ip), vehicle: saline with Tween-80) 189 % of control; (dose: 0.4 mg/kg/injection, schedule: Q01DX001 (ip), vehicle: saline with Tween-80) 153 % of control; (dose: 0.4 mg/kg/injection, schedule: Q01DX009 (ip), vehicle: saline with Tween-80) 213 % of control; (dose: 0.6 mg/kg/injection, schedule: Q04DX003 (ip), vehicle: saline with Tween-80) 159 % of control. Further, the T/C is 159 % of control (dose: 0.8 mg/kg/injection, schedule: Q01DX001 (ip), vehicle: saline with Tween-80); 117 % of control (dose: 0.8 mg/kg/injection, schedule: Q01DX009 (ip), vehicle: saline with Tween-80); 189 % of control (dose: 1.2 mg/kg/injection, schedule: Q04DX003 (ip), vehicle: saline with Tween-80); 159 % of control (dose: 1.6 mg/kg/injection, schedule: Q01DX001 (ip), vehicle: saline with Tween-80); 117 % of control (dose: 2.4 mg/kg/injection, schedule: Q04DX003 (ip), vehicle: saline with Tween-80); 189 % of control (dose: 3.2 mg/kg/injection, schedule: Q01DX001 (ip), vehicle: saline with Tween-80).
As to `CN(C)c1ccc(-c2cc(C(=O)O)c3cc4ccccc4cc3n2)cc1`, the T/C was 97 % of control (dose: 12.5 mg/kg/injection, schedule: Q01DX009 (ip), vehicle: saline with Tween-80); 97 % of control (dose: 25.0 mg/kg/injection, schedule: Q01DX009 (ip), vehicle: saline with Tween-80); 94 % of control and 102 % of control (dose: 50.0 mg/kg/injection, schedule: Q01DX009 (ip), vehicle: saline with Tween-80); 98 % of control and 104 % of control under setting [1].
For the compound `CCN(CC)CC(=O)Nc1ccc(Cl)cc1C(O)c1ccccc1` (centres undefined), the T/C (dose: 50.0 mg/kg/injection, schedule: Q01DX009 (ip), vehicle: saline) is 103 % of control; the T/C (dose: 100.0 mg/kg/injection, schedule: Q01DX009 (ip), vehicle: saline) is 97 % of control; the T/C (dose: 200.0 mg/kg/injection, schedule: Q01DX009 (ip), vehicle: saline) was 100 % of control.
For `O=C1C(=O)c2ccccc2C(O)=C1CC=C(Cl)Cl`, the T/C by setting is: (dose: 6.2 mg/kg/injection, schedule: Q01DX005 (ip), vehicle: water) 100 % of control; (dose: 12.5 mg/kg/injection, schedule: Q01DX001 (ip), vehicle: water) 100 % of control; (dose: 12.5 mg/kg/injection, schedule: Q01DX005 (ip), vehicle: water) 100 % of control; (dose: 12.5 mg/kg/injection, schedule: Q01DX010 (ip), vehicle: saline) 100 % of control; (dose: 12.5 mg/kg/injection, schedule: Q03HX024 (ip), vehicle: water) 100 % of control; (dose: 12.5 mg/kg/injection, schedule: Q04DX003 (ip), vehicle: water) 100 % of control. In addition, the T/C by setting is: (dose: 12.5 mg/kg/injection, schedule: Q08DX002 (ip), vehicle: water) 100 % of control; (dose: 25.0 mg/kg/injection, schedule: Q01DX001 (ip), vehicle: water) 108 % of control; (dose: 25.0 mg/kg/injection, schedule: Q01DX005 (ip), vehicle: water) 100 % of control; (dose: 25.0 mg/kg/injection, schedule: Q01DX009 (ip), vehicle: water) 100 % of control; (dose: 25.0 mg/kg/injection, schedule: Q01DX009 (oral), vehicle: water) 100 % of control; (dose: 25.0 mg/kg/injection, schedule: Q01DX010 (ip), vehicle: saline) 87 % of control. The T/C (dose: 25.0 mg/kg/injection, schedule: Q03HX008 (ip), vehicle: water) was 100 % of control; the T/C (dose: 25.0 mg/kg/injection, schedule: Q03HX016 (ip), vehicle: water) is 109 % of control; the T/C (dose: 25.0 mg/kg/injection, schedule: Q03HX024 (ip), vehicle: water) is 100 % of control; the T/C (dose: 25.0 mg/kg/injection, schedule: Q04DX003 (ip), vehicle: water) was 100 % of control; the T/C (dose: 25.0 mg/kg/injection, schedule: Q08DX002 (ip), vehicle: water) was 109 % of control; the T/C (dose: 50.0 mg/kg/injection, schedule: Q01DX001 (ip), vehicle: water) was 108 % of control. Also, the T/C is 108 % of control (dose: 50.0 mg/kg/injection, schedule: Q01DX001 (oral), vehicle: water); 100 % of control (dose: 50.0 mg/kg/injection, schedule: Q01DX005 (ip), vehicle: water); 100 % of control (dose: 50.0 mg/kg/injection, schedule: Q01DX009 (oral), vehicle: water); 91 % of control (dose: 50.0 mg/kg/injection, schedule: Q01DX010 (ip), vehicle: saline); 104 % of control (dose: 50.0 mg/kg/injection, schedule: Q01DX010 (oral), vehicle: saline with Tween-80); 100 % of control (dose: 50.0 mg/kg/injection, schedule: Q03HX008 (ip), vehicle: water). In addition, the T/C (dose: 50.0 mg/kg/injection, schedule: Q03HX016 (ip), vehicle: water) was 100 % of control; the T/C (dose: 50.0 mg/kg/injection, schedule: Q03HX024 (ip), vehicle: water) was 86 % of control; the T/C (dose: 50.0 mg/kg/injection, schedule: Q04DX003 (ip), vehicle: water) was 100 % of control; the T/C (dose: 50.0 mg/kg/injection, schedule: Q08DX002 (ip), vehicle: water) is 109 % of control; the T/C (dose: 75.0 mg/kg/injection, schedule: Q01DX005 (ip), vehicle: water) was 108 % of control; the T/C (dose: 75.0 mg/kg/injection, schedule: Q03HX024 (ip), vehicle: water) is 86 % of control. Further, the T/C by setting is: (dose: 75.0 mg/kg/injection, schedule: Q04DX003 (ip), vehicle: water) 100 % of control; (dose: 100.0 mg/kg/injection, schedule: Q01DX001 (oral), vehicle: water) 108 % of control; (dose: 100.0 mg/kg/injection, schedule: Q01DX009 (oral), vehicle: water) 86 % of control; (dose: 100.0 mg/kg/injection, schedule: Q01DX010 (oral), vehicle: saline with Tween-80) 108 % of control; (dose: 100.0 mg/kg/injection, schedule: Q03HX008 (ip), vehicle: water) 100 % of control; (dose: 100.0 mg/kg/injection, schedule: Q03HX016 (ip), vehicle: water) 100 % of control. Moreover, the T/C is 100 % of control (dose: 100.0 mg/kg/injection, schedule: Q03HX024 (ip), vehicle: water); 109 % of control (dose: 100.0 mg/kg/injection, schedule: Q08DX002 (ip), vehicle: water); 100 % of control (dose: 200.0 mg/kg/injection, schedule: Q01DX001 (oral), vehicle: water); 109 % of control (dose: 200.0 mg/kg/injection, schedule: Q03HX008 (ip), vehicle: water); 100 % of control (dose: 200.0 mg/kg/injection, schedule: Q03HX016 (ip), vehicle: water); 91 % of control (dose: 300.0 mg/kg/injection, schedule: Q01DX009 (oral), vehicle: water).
`CCOC(=O)C1OC12CCCCC2` (centres undefined): the T/C (dose: 100.0 mg/kg/injection, schedule: Q01DX001 (ip), vehicle: Klucel (hydroxypropylcellulose) (HPC)) is 109 % of control; the T/C (dose: 200.0 mg/kg/injection, schedule: Q01DX001 (ip), vehicle: Klucel (hydroxypropylcellulose) (HPC)) was 100 % of control; the T/C (dose: 200.0 mg/kg/injection, schedule: Q04DX003 (ip), vehicle: Klucel (hydroxypropylcellulose) (HPC)) is 100 % of control; the T/C (dose: 400.0 mg/kg/injection, schedule: Q01DX001 (ip), vehicle: Klucel (hydroxypropylcellulose) (HPC)) is 113 % of control; the T/C (dose: 400.0 mg/kg/injection, schedule: Q04DX003 (ip), vehicle: Klucel (hydroxypropylcellulose) (HPC)) is 116 % of control.
Consider `CCCCCCCCCCCCCCCCOc1ccccc1CNc1cccc(S(=O)(=O)F)c1`, for which the T/C is, setting by setting: under setting [1], 95 % of control; (dose: 200.0 mg/kg/injection, schedule: Q01DX009 (ip), vehicle: saline with Tween-80) 95 % of control; (dose: 400.0 mg/kg/injection, schedule: Q01DX009 (ip), vehicle: saline with Tween-80) 95 % of control.

The record behind these values is PubChem BioAssay AID328 (DTP/NCI, 2004).
